# Test results as given in patent US8785483B2, “Methods for treating COPD” (The Board of Regents of the University of Texas System, priority 2010, dated 2014).
# Columns and labels:
# [1] = test system: Muc5AC; assay: RT-PCR of Muc5AC in IL-13-treated SAEC monolayer; format: cell-based, human; details: SAEC monolayer at ALI, IL-13 18 h
# Method: FIGS. 6A-6B. AR inhibition prevents IL-13-induced expression of Mucin and transcription factor SPDEF in airway epithelial cell monolayer. (A) The airway epithelial cell monolayer at ALI was serum starved without or with fidarestat and incubated with IL-13 for 18 h. Total RNA was isolated and subsequently RT-PCR was performed to assess the expression of Muc5AC and SPDEF. The bar diagrams show densitometric analysis of the corresponding blots (n=4). *p<0.001 vs Control; **p<0.001 vs IL-13; (B) The monolayer of ciliated airway cells at ALI was treated with AR inhibitor for 24 h and subsequently incubated with IL-13 for 24 or 48 h. At the end of incubation, cell lysate was prepared and subjected to western blotting using antibodies against Muc5AC, Muc5B, and SPDEF. The membranes were stripped and re-probed with antibodies against GAPDH to show the equal loading of protein. A representative blot is shown (n=4). *p<0.0001 vs Control; **p<0.001 vs IL-13.
# For air-liquid interface (ALI) culture, SAEC were seeded at 8.5×10^4 cells/12-mm-diameter PET transparent insert with […] pores (12-well millicell culture insert; Millipore) and pre-coated with rat tail collagen type-1 (Sigma-Aldrich). The cells were grown submerged in the differentiation medium as described earlier by Zhen et al. (Am J Respir Cell Mol Biol 36: 244-253, 2007). […]
# [2] = test system: Muc5AC; assay: Muc5AC ELISA in culture medium; format: cell-based, human; details: airway epithelial monolayer, IL-13 48 h
# Method: FIGS. 5A-5B. AR inhibition prevents IL-13-induced goblet cell metaplasia and expression of Muc5AC in airway epithelial monolayer. (A) The well-differentiated airway epithelial cells at air-liquid interface (ALI) were incubated with IL-13 for 48 h without or with AR inhibitor, fidarestat. The monolayer was fixed as described and immunohistochemistry using Muc5AC antibodies was performed on the sections. A representative photomicrograph is shown (n=4); magnification 400×. […] (C) The airway epithelial monolayer was incubated with IL-13 submerged in basal medium for 48 h in the absence and presence of AR inhibitor, fidarestat. The culture medium was collected from the top chamber and utilized for determination of Muc5AC by an ELISA, (n=4); *p<0.005 vs Control; **p<0.01 vs IL-13. For air-liquid interface (ALI) culture, SAEC were seeded at 8.5×10^4 cells/12-mm-diameter PET transparent insert with […] pores (12-well millicell culture insert; Millipore) and pre-coated with rat tail collagen type-1 (Sigma-Aldrich). The cells were grown submerged in the differentiation medium as described earlier by Zhen et al. (Am J Respir Cell Mol Biol 36: 244-253, 2007). […] Muc5AC levels in the culture medium were assessed by ELISA using commercially available human anti-Muc5AC ELISA essentially as described by the manufacturer (Cosmo Bio USA; Carlsbad, Calif.).
compound,measurement,setting,value
"NC(=O)[C@@H]1C[C@]2(NC(=O)NC2=O)c2cc(F)ccc2O1 [fidarestat, (2S,4S)-2-aminoformyl-6-fluoro-spiro[chroman-4,4′-imidazolidine]-2′,5′-dione]",IL-13-induced Muc5AC-specific RNA expression,[1],significantly prevented the increase
same,prevention of IL-13-induced secretion of Muc5AC in the medium,[2],~80%
